In US20100063007A1, “PESTICIDE C[…]-[…] AND AN I[…] SUBSTANCE” (BAYER CROPSCIENCE AG, priority 2006, published 2010):

Legend:
Plutella xylostella = assay: Efficacy Example A: Plutella xylostella test (cabbage leaf dip, larval mortality); format: in vivo; conditions: mortality of larvae after 6 days
Procedure: Efficacy Example A: Plutella xylostella Test
(§1) After a period of time of 6 days, the mortality is determined. 100% means that all the caterpillars have been killed; 0% means that none of the caterpillars have been killed.

Spodoptera frugiperda = assay: Efficacy Example B: Spodoptera frugiperda test (cabbage leaf dip, larval mortality); format: in vivo; conditions: mortality of larvae after 6 days
Procedure: Efficacy Example B: Spodoptera frugiperda Test
as §1

## CN/C(=N\[N+](=O)[O-])NCc1cnc(Cl)s1 [clothianidin]
Plutella xylostella; rate of application 100 ppm
  Efficacy (%): 80%

## O=[N+]([O-])NC1=NCCN1Cc1ccc(Cl)nc1 [imidacloprid]
Spodoptera frugiperda; rate of application 4 ppm
  Efficacy (%): 30%

## CN1COCN(Cc2cnc(Cl)s2)/C1=N\[N+](=O)[O-] [thiamethoxam]
Spodoptera frugiperda; rate of application 20 ppm
  Efficacy (%): 0%

## N#C/N=C1\SCCN1Cc1ccc(Cl)nc1 [thiacloprid]
Plutella xylostella; rate of application 20 ppm
  Efficacy (%): 5%
